Data on 4 compounds can be found in patent US20050053591A1, “Compositions and uses of motor protein-binding moieties” (Insert Therapeutics, Inc., priority 2002, published 2005).

Test [1] has as its target FKBPs with a single amino acid substitution, Phe36Val (FV) (Homo sapiens, UniProt P62942, F37V). The note with it: FKBP Phe36Val (FV); cited from earlier work.
Another test addresses wild-type FKBP (Homo sapiens, UniProt P62942). The note with it: wild-type FKBP versus FV; cited from earlier work.
For the next test, the system named is PC3 cells. Kind of test: Dynein-mediated transport to the nuclear surface in cultured cells (fluorescence microscopy, FIG. 1). Type of test: cell-based. The note with it: rhodamine-labeled GFP plasmid conjugated to peptide, formulated with CD-IPEI at 5+/-, 1 μg plasmid, 5 hours exposure. As for the experimental part:
PC3 cells were plated at 100,000 cells/mL in 6-well plates containing a clean glass coverslip at the bottom of each well one day before transfection. For transfection, 1 μg of plasmid was mixed with a linear, cyclodextrin polycation (CD-IPEI) at 5+/− and mixed with cells in 1 mL of Opti-MEM. Transfection solution was removed 5 hours after exposure and replaced with complete media. Cells were washed with PBS, fixed with formalin (0.5 mL for 10 minutes), and washed 3 times with PBS. The coverslips were then removed from the wells and mounted on glass slides with Prolong Antifade (Molecular Probes, Eugene, Oreg.).

A further test addresses DLC8 (Homo sapiens, UniProt P63167). The note with it: nine-residue peptide from the Bim protein (Lo et al.); cited from earlier work.

FKBPs with a single amino acid substitution, Phe36Val (FV), sequence (P62942 whole entry F37V): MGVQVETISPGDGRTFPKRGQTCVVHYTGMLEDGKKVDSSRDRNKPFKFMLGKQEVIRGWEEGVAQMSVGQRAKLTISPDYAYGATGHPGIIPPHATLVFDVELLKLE
wild-type FKBP, sequence (P62942 whole entry): as the sequence (P62942 whole entry F37V) above, with V37F counted along it
DLC8, sequence (P63167 whole entry, species assumed): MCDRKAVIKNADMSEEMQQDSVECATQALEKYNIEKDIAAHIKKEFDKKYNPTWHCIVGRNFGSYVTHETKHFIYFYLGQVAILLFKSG

For the compound `CC[C@H](C(=O)N1CCCC[C@H]1C(=O)O[C@H](CCc1ccc(OC)c(OC)c1)c1cccc(OCC(=O)NCCNC(=O)COc2cccc([C@@H](CCc3ccc(OC)c(OC)c3)OC(=O)[C@@H]3CCCCN3C(=O)[C@@H](CC)c3cc(OC)c(OC)c(OC)c3)c2)c1)c1cc(OC)c(OC)c(OC)c1` [AP1903], the binding affinity result in test [1] is recorded as “subnanomolar”. The “lower affinity to the wild-type protein relative to Phe36Val FKBP” value on wild-type FKBP is given as 1000 fold. As to `CC[C@H](C(=O)N1CCCC[C@H]1C(=O)O[C@H](CCc1ccc(OC)c(OC)c1)c1cccc(OCC(=O)NCC(CNC(=O)COc2cccc([C@@H](CCc3ccc(OC)c(OC)c3)OC(=O)[C@@H]3CCCCN3C(=O)[C@@H](CC)c3cc(OC)c(OC)c(OC)c3)c2)CN(C)C)c1)c1cc(OC)c(OC)c(OC)c1` [AP20187], the binding affinity result in test [1] is listed as “subnanomolar”. For the same compound, the “lower affinity to the wild-type protein relative to Phe36Val FKBP” value on wild-type FKBP was 1000 fold.

In the case of CSYSKETQPL [dynein-binding peptide], in the test on PC3 cells, the “transport of plasmid DNA toward the nucleus” value is recorded as “facilitates transport toward the nucleus”. On to “MSCDKSTQT [nine-peptide from the Bim protein]”, for which the DLC8 binding result in the test with DLC8 is “can bind DLC8”.
